Measured values as given in the supplement of paper PMC13380429.

Key:
Conditions in all cases: 72 h
[1] = tested on: Vero E6; assay: drug sensitivity score (DSS) for viability; higher = more toxic; extreme values may be limits of the assay
[2] = tested on: U2OS; assay: as above
[3] = tested on: Calu-3; assay: as above
[4] = tested on: HepG2; assay: as above
[5] = tested on: Caco-2; assay: as above
[6] = tested on: Vero E6; assay: cell viability relative to DMSO; higher = less toxic
[7] = tested on: U2OS; assay: as above
[8] = tested on: Calu-3; assay: as above
[9] = tested on: HepG2; assay: as above
[10] = tested on: Caco-2; assay: as above
[11] = tested on: Vero E6; assay: relative viability EC50 (midpoint between 100% and the lowest measured viability); higher = less toxic
[12] = tested on: U2OS; assay: as above
[13] = tested on: HepG2; assay: as above
[14] = tested on: Calu-3; assay: as above
[15] = tested on: Caco-2; assay: as above

Compound	drug sensitivity score [1]	drug sensitivity score [2]	drug sensitivity score [3]	drug sensitivity score [4]	drug sensitivity score [5]	cell viability ([6]; 1 nM) [%]	cell viability ([6]; 10 nM) [%]	cell viability ([6]; 100 nM) [%]	cell viability ([6]; 1000 nM) [%]	cell viability ([6]; 10000 nM) [%]	cell viability ([7]; 1 nM) [%]	cell viability ([7]; 10 nM) [%]	cell viability ([7]; 100 nM) [%]	cell viability ([7]; 1000 nM) [%]	cell viability ([7]; 10000 nM) [%]	cell viability ([8]; 1 nM) [%]	cell viability ([8]; 10 nM) [%]	cell viability ([8]; 100 nM) [%]	cell viability ([8]; 1000 nM) [%]	cell viability ([8]; 10000 nM) [%]	cell viability ([9]; 1 nM) [%]	cell viability ([9]; 10 nM) [%]	cell viability ([9]; 100 nM) [%]	cell viability ([9]; 1000 nM) [%]	cell viability ([9]; 10000 nM) [%]	cell viability ([10]; 1 nM) [%]	cell viability ([10]; 10 nM) [%]	cell viability ([10]; 100 nM) [%]	cell viability ([10]; 1000 nM) [%]	cell viability ([10]; 10000 nM) [%]	relative viability EC50 [11] [µM]	relative viability EC50 [12] [µM]	relative viability EC50 [13] [µM]	relative viability EC50 [14] [µM]	relative viability EC50 [15] [µM]
Cc1ccc2nc(NCCN)c3ncc(C)n3c2c1	4.6	4.1	1.2	8.6	1.4	102	92.6	94.5	90.3	44	95.2	96.1	94.6	98.7	28.4	91.9	93	89.4	102	70.2	111	100	86.6	79.6	3.6	95.8	95.9	95.8	102	66	1.86	3.04	1.69	–	–
COc1c(O[C@@H]2O[C@H](CO)[C@@H](O)[C@H](O)[C@H]2O)cc2c(c1OC)-c1ccc(SC)c(=O)cc1[C@@H](NC(C)=O)CC2 [thiocolchicoside]	0	–	0	0	0	102	104	99.1	106	103	–	–	–	–	–	102	93.2	98.7	102	97.8	97	100	91.4	97.2	90.9	96.1	96.4	82.7	102	94.5	> 10	–	> 10	> 10	> 10
Brc1c(Br)c(Br)c2[nH]nnc2c1Br [4,5,6,7-tetrabromobenzotriazole]	0	0	–	0	0	105	103	101	99.4	103	97.2	98	97.9	100	99.2	–	–	–	–	–	117	93.9	102	93.3	107	93.8	107	90.4	95.7	99.2	> 10	> 10	> 10	–	> 10
CC(C)(C)c1ccc(CN(Cc2cccc(OCC(=O)O)c2)S(=O)(=O)c2cccnc2)cc1 [evatanepag]	0	–	0	0	0	108	104	102	97.4	93.5	–	–	–	–	–	110	101	94.2	99.7	94.9	99.1	108	91.7	94.3	93.6	98.5	97.8	101	102	101	> 10	–	> 10	> 10	> 10
COc1cc2c(cc1OC(C)C)[C@H](c1ccc(Cl)cc1)N(c1ccc(N(C)C[C@H]3CC[C@H](N4CCN(C)C(=O)C4)CC3)cc1)C(=O)C2 [CGM097]	5	3.8	–	7.6	0.3	102	105	95.1	83.3	46.9	98.1	104	94.7	94.6	44.8	–	–	–	–	–	104	109	100	75.2	26.1	96.6	105	93.6	98.8	85.9	1.45	2.36	1.31	–	> 10
N=C(N)NC(=N)Nc1ccccc1 [1-phenylbiguanide]	0	0	–	0	0	100	93.4	94.8	99.4	101	99.3	97.7	103	101	100	–	–	–	–	–	97.3	106	103	109	101	96.3	94.8	95.5	92.4	98.8	> 10	> 10	> 10	–	> 10
CN1CCc2nc(C(=O)N[C@@H]3C[C@@H](C(=O)N(C)C)CC[C@@H]3NC(=O)C(=O)Nc3ccc(Cl)cn3)sc2C1 [edoxaban]	0	–	0	0	0	99.5	96	94.8	92.7	104	–	–	–	–	–	97.6	96.4	92.8	98.3	105	106	94.9	106	96.4	101	92.4	102	94.4	101	107	> 10	–	> 10	> 10	> 10
